Data published in patent publication US20240150289A1, “CRYSTALLINE CARBAZOLE DERIVATIVE” (Raziel Therapeutics Ltd., priority 2021, published 2024).
“Also recorded” adds a separate entry of the source.

Columns and labels:
[1] = Accelerated stability tests of crystalline Compound A Form 1 (storage, HPLC purity and XRPD); type: physicochemical; conditions: 7 days; for Purity: HPLC
Experimental: (§1) XRPD analysis was carried out on a PANalytical X'pert Pro with PIXcel detector (128 channels), scanning the samples between 3 and 35° 2θ. The material was gently ground (where required) to release any agglomerates and loaded onto a multi-well plate with Kapton or Mylar polymer film to support the sample. The multi-well plate was then placed into the diffractometer and analyzed using Cu K radiation (α1 λ=1.54060 Å; α2 λ=1.54443 Å; β=1.39225 Å; α1:α2 ratio=0.5) running in transmission mode (step size 0.0130° 2θ, step time 18.87s) using 40 kV/40 mA generator settings. Data were visualized and images generated using the HighScore Plus 4.7 desktop application (PANalytical, 2017). Crystalline Compound A Form 1 was not changed after storage at room temperature for 7 days, storage at 40° C./75% RH for 7 days, or storage at 80° C. for 7 days. Purity was determined by HPLC analysis.

[2] = Long-term stability tests of crystalline Compound A Form 1 (storage, HPLC purity and XRPD); type: physicochemical; conditions: for Purity: HPLC
Experimental: as §1, with “25° C/60%RH” for “room temperature”, “36 months or” for “7 days,”, “C/75%RH” for “C./75% RH”, “6 months.” for “7 days, or storage at 80° C. for 7 days.”

[3] = 25° C./60% RH (closed container), 3 months
[4] = 25° C./60% RH (closed container), 6 months
[5] = 25° C./60% RH (closed container), 12 months
[6] = 25° C./60% RH (closed container), 24 months
[7] = 25° C./60% RH (closed container), 36 months
[8] = 40° C./75% RH (closed container), 1 month
[9] = 40° C./75% RH (closed container), 3 months
[10] = 40° C./75% RH (closed container), 6 months

XRPD ([1]; 40° C./75% RH (open vial)): not changed; also recorded: Unchanged | Purity ([1]; 40° C./75% RH (open vial)): 99.93% | XRPD ([1]; 80° C. (closed vial)): not changed; also recorded: Unchanged | Purity ([1]; 80° C. (closed vial)): 99.93% | XRPD ([1]; Room Temperature (open vial)): not changed; also recorded: Unchanged | Purity ([1]; Room Temperature (open vial)): 99.93% | XRPD [2, 3]: Unchanged | Purity [2, 3]: 99.7% | XRPD [2, 4]: Unchanged | Purity [2, 4]: 99.7% | XRPD [2, 5]: Unchanged | Purity [2, 5]: 99.7% | XRPD [2, 6]: Unchanged | Purity [2, 6]: 99.7% | XRPD [2, 7]: not changed; also recorded: Unchanged | Purity [2, 7]: 99.7% | XRPD [2, 8]: Unchanged | Purity [2, 8]: 99.7% | XRPD [2, 9]: Unchanged | Purity [2, 9]: 99.7% | XRPD [2, 10]: not changed; also recorded: Unchanged | Purity [2, 10]: 99.8%
SMILES: C[N+](C)(C)CCCCCn1c2ccc(Br)cc2c2cc(Br)ccc21.[Cl-] [Compound A Form 1, 5-(3,6-dibromo-9H-carbazol-9-yl)-N,N,N-trimethylpentan-1-aminium chloride Form 1]
